Blank lines part the entries; values can stand above or below the compound they belong to.
Legend:
[1] = target: T1, Histone-lysine N-methyltransferase EZH2 (Homo sapiens, UniProt Q15910); experiment: Inhibition of wildtype EZH2 (unknown origin)
HCT-116 = experiment: Cytotoxicity against human HCT-116 cells assessed as reduction in cell viability measured after 72 hrs by MTT assay; format: functional, cell-based; details: HCT-116, 72 h
KARPAS-422 [2] = experiment: Antitumor activity against human KARPAS-422 cells xenografted in nude mouse assessed as reduction in tumor growth at 100 mg/kg, po administered once daily for 14 consecutive days relative to control; format: functional; details: read-out: TGI
KARPAS-422 [3] = experiment: Growth inhibition of human KARPAS-422 cells assessed as reduction in cell viability measured after 72 hrs by MTT assay; format: functional
G-401 = experiment: Growth inhibition of human G-401 cells assessed as reduction in cell viability measured after 72 hrs by MTT assay; format: functional
NCI-N87 = experiment: Growth inhibition of human NCI-N87 cells assessed as reduction in cell viability measured after 72 hrs by MTT assay; format: functional
MCF-10A = experiment: Antiproliferative activity against human MCF-10A cells assessed as cell growth inhibition measured after 72 hrs by MTT assay; format: functional, cell-based
[4] = target: T1, Histone-lysine N-methyltransferase EZH2; experiment: Inhibition of EZH2 (unknown origin) using SAM as substrate preincubated for 10 mins followed by substrate addition and measured after 4 hrs by HTRF assay
A549 = experiment: Antiproliferative activity against human A549 cells assessed as reduction in cell viability measured after 48 hrs by MTT assay; format: functional, cell-based; details: A549, 48 h
[5] = target: T1, Histone-lysine N-methyltransferase EZH2
Description: Inhibition of human EZH2 in human MCF-10A cells assessed as reduction in H3K27me3 levels incubated for 72 hrs by Western blot analysis

[6] = target: T1, Histone-lysine N-methyltransferase EZH2; remark: listed apart in the source
Description: Inhibition of human EZH2 using core histone as substrate incubated for 1 hr by fluorescence based assay

[7] = Antiproliferative activity against human DLBCL cells assessed as reduction in cell viability measured after 72 hrs by MTT assay; format: functional, cell-based
[8] = target: Histone-lysine N-methyltransferase EZH2 (Homo sapiens, UniProt Q15910, Y641F); experiment: Inhibition of N-terminal FLAG-tagged recombinant full-length human EZH2 Y641F mutant in PRC2 complex expressed in baculovirus infected Sf9 cells using H3K27me0 biotin/SAM as substrate preincubated for 10 mins followed by substrate addition measured after 4 hrs by HTRF assay
ASPC1 = experiment: Antiproliferative activity against human ASPC1 cells harboring KRAS G12D mutant assessed as reduction in cell growth measured after 72 hrs by MTT assay; format: functional, cell-based; details: ASPC1, 72 h
[9] = target: T1, Histone-lysine N-methyltransferase EZH2; experiment: Inhibition of EZH2 (unknown origin) using plate-coated histone as substrate at 5 uM incubated for 90 mins in presence of 5 uM SAM by AlphaScreen assay
MV4-11 = experiment: Growth inhibition of human MV4-11 cells assessed as reduction in cell viability measured after 72 hrs by MTT assay; format: functional
RS4-11 = experiment: Growth inhibition of human RS4-11 cells assessed as reduction in cell viability measured after 72 hrs by MTT assay; format: functional
[10] = target: T1, Histone-lysine N-methyltransferase EZH2; experiment: Inhibition of EZH2 methyltransferase activity in human PA-1 cells assessed as reduction in H3K27me3 level measured after 4 days by Western blot analysis; format: cell-based

T1 sequence (Q15910 whole entry): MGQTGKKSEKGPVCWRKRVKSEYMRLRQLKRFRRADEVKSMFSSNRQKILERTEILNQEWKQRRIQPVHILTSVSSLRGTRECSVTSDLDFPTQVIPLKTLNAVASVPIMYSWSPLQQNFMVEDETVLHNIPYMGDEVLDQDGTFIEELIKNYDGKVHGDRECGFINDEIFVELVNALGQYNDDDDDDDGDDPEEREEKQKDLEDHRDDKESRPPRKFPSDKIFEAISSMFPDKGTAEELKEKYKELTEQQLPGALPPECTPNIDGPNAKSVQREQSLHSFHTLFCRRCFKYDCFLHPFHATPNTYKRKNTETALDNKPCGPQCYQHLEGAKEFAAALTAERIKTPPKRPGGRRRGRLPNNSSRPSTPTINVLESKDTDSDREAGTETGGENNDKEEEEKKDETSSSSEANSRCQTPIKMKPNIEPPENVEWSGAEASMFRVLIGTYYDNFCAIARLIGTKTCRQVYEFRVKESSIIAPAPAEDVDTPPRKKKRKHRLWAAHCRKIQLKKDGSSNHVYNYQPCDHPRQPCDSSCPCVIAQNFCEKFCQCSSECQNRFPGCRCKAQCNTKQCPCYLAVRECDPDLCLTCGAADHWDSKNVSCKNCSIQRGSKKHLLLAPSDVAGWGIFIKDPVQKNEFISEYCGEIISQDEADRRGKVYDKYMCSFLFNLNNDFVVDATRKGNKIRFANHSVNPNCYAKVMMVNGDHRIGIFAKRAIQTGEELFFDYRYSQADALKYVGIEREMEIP
Chain of Histone-lysine N-methyltransferase EZH2 (Homo sapiens, UniProt Q15910, Y641F) (Q15910 whole entry Y641F): as the sequence (Q15910 whole entry) above, with Y641F counted along it

Compound: Cc1cc(C)c(CNC(=O)c2cc(Br)c3c(c2C)O[C@@](C)([C@H]2CC[C@H](N(C)C)CC2)O3)c(=O)[nH]1
GI50 (G-401): 17.7 nM | IC50 (HCT-116): 0.62 nM | GI50 (NCI-N87): 536 nM | GI50 (KARPAS-422 [3]): 4 nM

Compound: COc1cc2nc(N3CCN(C)CC3)nc(NC3CCN(Cc4ccccc4)CC3)c2cc1OC
IC50 (MCF-10A): > 15000 nM

Compound: Cc1cc(C)c(CNC(=O)c2c(C)cn(Cc3ccc(C(F)(F)F)cc3)c2C)c(=O)[nH]1
IC50 (A549): 270000 nM

Compound: CCCc1cc(C)[nH]c(=O)c1CNC(=O)c1cc(-c2ccc(N3CCN(C(C)C)CC3)nc2)cc2c1cnn2C(C)C
IC50 [5]: < 10 nM | IC50 [6]: < 10 nM | EC50 [7]: 633 nM

Compound: CCCc1cc(C)[nH]c(=O)c1CNC(=O)c1cc(-c2ccc(N3CCN(C)CC3)nc2)nc2c1cnn2C(C)C
IC50 [8]: 80 nM

Compound: Cc1cc(C)c(CNC(=O)c2cc(Cl)c3c(c2C)O[C@@](C)([C@H]2CC[C@H](N(C)C)CC2)O3)c(=O)[nH]1 [VALEMETOSTAT]
IC50 (HCT-116): 24 nM | GI50 (MV4-11): 4.8 nM | GI50 (RS4-11): 78.3 nM | GI50 (KARPAS-422 [3]): 4.8 nM

Continued, in another order:

IC50 [1]: 6.4 nM
Compound: CCN(c1cc(C(=O)NCc2c(C)cc(C)[nH]c2=O)c2cc(CN3CCCCC3)oc2c1)C1CCOCC1

GI50 (KARPAS-422 [3]): 210 nM
Compound: CCN1CCN(c2ccc(-c3cc(C(=O)NCc4c(C)cc(C)[nH]c4=O)c(C)c4c3O[C@](C)(CN3CCOCC3)O4)cn2)CC1
IC50 (HCT-116): 0.55 nM | inhibition in vivo at 100 mg/kg (KARPAS-422 [2]): 82%

IC50 [4]: 120 nM
Compound: Cc1cc(C)c(CNC(=O)c2cc(-c3ccc(N4CCN(CCNC(=O)C56CC7CC(CC(C7)C5)C6)CC4)nc3)cc3c2cnn3C(C)C)c(=O)[nH]1

IC50 (ASPC1): 690 nM
Compound: CCN(c1cc(-c2ccc(OCCCCCNC(=O)C[C@@H]3N=C(c4ccc(Cl)cc4)c4c(sc(C)c4C)-n4c(C)nnc43)cc2)cc(C(=O)NCc2c(C)cc(C)[nH]c2=O)c1C)C1CCOCC1

IC50 [9]: 8600 nM
Compound: CCN(c1cc(-c2ccc(CN3CCN(C(=O)CCCCCCCC(=O)N[C@H](C(=O)N4C[C@H](O)C[C@H]4C(=O)NCc4ccc(-c5scnc5C)cc4)C(C)(C)C)CC3)cc2)cc(C(=O)NCc2c(C)cc(C)[nH]c2=O)c1C)C1CCOCC1

IC50 [10]: < 5 nM
Compound: CCN(c1cc(-c2ccc(CN3CCN(CCCCCCCOc4cccc5c4C(=O)N(C4CCC(=O)NC4=O)C5=O)CC3)cc2)cc(C(=O)NCc2c(C)cc(C)[nH]c2=O)c1C)C1CCOCC1 (configuration not stated)
